Experimental data as given in patent US6737383B1, “Herbicidal oxadiazolidines” (priority 1999, dated 2004).

How the values were obtained:
bedstraw = experiment: Test B pre/postemergence bedstraw; format: in vivo, Galium aparine
Method in brief: (§1)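 Herbicidal effect was estimated by eye on a ten-point control scale after plants spent twelve to sixteen days in a greenhouse following soil or foliar treatment. Foliar sprays targeted plants at one to four leaves; all doses were formulated in a non-phytotoxic solvent with surfactant.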

blackgrass = experiment: Test B pre/postemergence blackgrass; format: in vivo, Alopecurus myosuroides
Method in brief: as §1

surinam grass = experiment: Test B pre/postemergence surinam grass; format: in vivo, Brachiaria decumbens
Method in brief: as §1

cocklebur = experiment: Test B pre/postemergence cocklebur; format: in vivo, Xanthium strumarium
Method in brief: as §1

corn = experiment: Test B pre/postemergence corn; format: in vivo, Zea mays
Method in brief: as §1

crabgrass = experiment: Test B pre/postemergence crabgrass; format: in vivo, Digitaria sanguinalis
Method in brief: as §1

giant foxtail = experiment: Test B pre/postemergence giant foxtail; format: in vivo, Setaria faberii
Method in brief: as §1

morningglory = experiment: Test B pre/postemergence morningglory; format: in vivo, Ipomoea hederacea
Method in brief: as §1

pigweed = experiment: Test B pre/postemergence pigweed; format: in vivo, Amaranthus retroflexus
Method in brief: as §1

rape = experiment: Test B pre/postemergence rape; format: in vivo, Brassica napus
Method in brief: as §1

soybean = experiment: Test B pre/postemergence soybean; format: in vivo, Glycine max
Method in brief: as §1

sugar beet = experiment: Test B pre/postemergence sugar beet; format: in vivo, Beta vulgaris
Method in brief: as §1

velvetleaf = experiment: Test B pre/postemergence velvetleaf; format: in vivo, Abutilon theophrasti
Method in brief: as §1

wheat = experiment: Test B pre/postemergence wheat; format: in vivo, Triticum aestivum
Method in brief: as §1

wild oat = experiment: Test B pre/postemergence wild oat; format: in vivo, Avena fatua
Method in brief: as §1

purple nutsedge = experiment: Test B pre/postemergence purple nutsedge; format: in vivo, Cyperus rotundus
Method in brief: as §1

rice = experiment: Test B flood test rice; format: in vivo, Oryza sativa
Method in brief: (§2)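 Each value is a visual injury score relative to controls, with 10 meaning complete control and 0 no effect. Evaluation took place twelve to sixteen days after the 2-leaf-stage plants were treated and kept in the greenhouse.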

smallflower flatsedge = experiment: Test B flood test smallflower flatsedge; format: in vivo, Cyperus difformis
Method in brief: as §2

duck salad = experiment: Test B flood test duck salad; format: in vivo, Heteranthera limosa
Method in brief: as §2

bamyardgrass = experiment: Test B flood test barnyardgrass; format: in vivo, Echinochloa crus-galli
Method in brief: as §2

[1] = Preemergence, Rate 62 g/ha, scale of 0 to 10 where 0 is no effect and 10 is complete control
[2] = Preemergence, Rate 250 g/ha, scale of 0 to 10 where 0 is no effect and 10 is complete control
[3] = Preemergence, Rate 500 g/ha, scale of 0 to 10 where 0 is no effect and 10 is complete control
[4] = Rate 62 g/ha, Postemergence, scale of 0 to 10 where 0 is no effect and 10 is complete control
[5] = Rate 125 g/ha, Postemergence, scale 0 to 10
[6] = Rate 125 g/ha, Preemergence, scale of 0 to 10 where 0 is no effect and 10 is complete control
[7] = Rate 500 g/ha, Postemergence, scale 0 to 10, 0 no effect, 10 complete control
[8] = Rate 62 g/ha, headed Pre-emergence (flood test species), scale 0 to 10 (0 no effect, 10 complete control)
[9] = Rate 125 g/ha, Pre-emergence, flood test species, scale 0 to 10 where 0 is no effect and 10 is complete control
[10] = Rate 250 g/ha, Pre-emergence, flood-test species, scale 0 to 10, 0 is no effect, 10 is complete control
[11] = Rate 500 g/ha, Pre-emergence, flood test species, scale 0 to 10 (0 no effect, 10 complete control)

CC(C)N(C(=O)n1oc(=O)n(CCC2CCCCC2)c1=O)c1ccc(F)cc1 [Compound 257]
Bedstraw plant response rating (bedstraw; [1]): 0
Bedstraw plant response rating (bedstraw; [2]): 0
Plant response rating, Bedstraw (bedstraw; [3]): 0
Bedstraw plant response rating (bedstraw; [4]): 0
Bedstraw plant response rating (bedstraw; [5]): 0
Bedstraw plant response rating (bedstraw; [6]): 0
Plant response rating (0 to 10; 0 is no effect, 10 is complete control), Bedstraw (bedstraw; Rate 250 g/ha, Postemergence): 0
Bedstraw plant response rating (bedstraw; [7]): 0
Blackgrass plant response rating (blackgrass; [1]): 0
Blackgrass plant response rating (blackgrass; [2]): 0
Plant response rating, Blackgrass (blackgrass; [3]): 0
Blackgrass plant response rating (blackgrass; [4]): 0
Blackgrass plant response rating (blackgrass; [5]): 0
Blackgrass plant response rating (blackgrass; [6]): 0
Plant response rating (0 to 10; 0 is no effect, 10 is complete control), Blackgrass (blackgrass; Rate 250 g/ha, Postemergence): 1
Blackgrass plant response rating (blackgrass; [7]): 2
B. signalgrass plant response rating (surinam grass; [1]): 0
B. signalgrass plant response rating (surinam grass; [2]): 0
Plant response rating, B. signalgrass (surinam grass; [3]): 3
B. signalgrass plant response rating (surinam grass; [4]): 0
B. signalgrass plant response rating (surinam grass; Rate 125 g/ha, Postemergence, scale 0 (no effect) to 10 (complete control)): 0
B. signalgrass plant response rating (surinam grass; [6]): 0
Plant response rating (0 to 10; 0 is no effect, 10 is complete control), B. signalgrass (surinam grass; Rate 250 g/ha, Postemergence): 0
B. signalgrass plant response rating (surinam grass; [7]): 0
Cocklebur plant response rating (cocklebur; [1]): 0
Cocklebur plant response rating (cocklebur; [2]): 0
Plant response rating, Cocklebur (cocklebur; [3]): 0
Cocklebur plant response rating (cocklebur; [4]): 0
Cocklebur plant response rating (cocklebur; [5]): 0
Cocklebur plant response rating (cocklebur; [6]): 0
Plant response rating (0 to 10; 0 is no effect, 10 is complete control), Cocklebur (cocklebur; Rate 250 g/ha, Postemergence): 0
Cocklebur plant response rating (cocklebur; [7]): 0
Corn plant response rating (corn; [1]): 0
Corn plant response rating (corn; [2]): 0
Plant response rating, Corn (corn; [3]): 0
Corn plant response rating (corn; [4]): 0
Corn plant response rating (corn; [5]): 0
Corn plant response rating (corn; [6]): 0
Plant response rating (0 to 10; 0 is no effect, 10 is complete control), Corn (corn; Rate 250 g/ha, Postemergence): 0
Corn plant response rating (corn; [7]): 0
Crabgrass plant response rating (crabgrass; [1]): 0
Crabgrass plant response rating (crabgrass; [2]): 2
Plant response rating, Crabgrass (crabgrass; [3]): 5
Crabgrass plant response rating (crabgrass; [6]): 2
Plant response rating (0 to 10; 0 is no effect, 10 is complete control), Crabgrass (crabgrass; Rate 250 g/ha, Postemergence): 2
Crabgrass plant response rating (crabgrass; [7]): 4
Giant foxtail plant response rating (giant foxtail; [1]): 3
Giant foxtail plant response rating (giant foxtail; [2]): 6
Plant response rating, Giant foxtail (giant foxtail; [3]): 9
Giant foxtail plant response rating (giant foxtail; [6]): 6
Plant response rating (0 to 10; 0 is no effect, 10 is complete control), Giant foxtail (giant foxtail; Rate 250 g/ha, Postemergence): 0
Giant foxtail plant response rating (giant foxtail; [7]): 2
Morningglory plant response rating (morningglory; [1]): 0
Morningglory plant response rating (morningglory; [2]): 2
Plant response rating, Morningglory (morningglory; [3]): 4
Morningglory plant response rating (morningglory; [6]): 0
Plant response rating (0 to 10; 0 is no effect, 10 is complete control), Morningglory (morningglory; Rate 250 g/ha, Postemergence): 8
Morningglory plant response rating (morningglory; [7]): 8
Redroot pigweed plant response rating (pigweed; [1]): 0
Redroot pigweed plant response rating (pigweed; [2]): 0
Plant response rating, Redroot pigweed (pigweed; [3]): 4
Redroot pigweed plant response rating (pigweed; [6]): 0
Plant response rating (0 to 10; 0 is no effect, 10 is complete control), Redroot pigweed (pigweed; Rate 250 g/ha, Postemergence): 4
Redroot pigweed plant response rating (pigweed; [7]): 6
Rape plant response rating (rape; [1]): 0
Rape plant response rating (rape; [2]): 0
Plant response rating, Rape (rape; [3]): 0
Rape plant response rating (rape; [6]): 0
Plant response rating (0 to 10; 0 is no effect, 10 is complete control), Rape (rape; Rate 250 g/ha, Postemergence): 2
Rape plant response rating (rape; [7]): 5
Soybean plant response rating (soybean; [1]): 0
Soybean plant response rating (soybean; [2]): 0
Plant response rating, Soybean (soybean; [3]): 0
Soybean plant response rating (soybean; [6]): 0
Soybean plant response rating (soybean; [7]): 4
Sugarbeets plant response rating (sugar beet; [1]): 0
Sugarbeets plant response rating (sugar beet; [2]): 0
Plant response rating, Sugarbeets (sugar beet; [3]): 0
Sugarbeets plant response rating (sugar beet; [6]): 0
Sugarbeets plant response rating (sugar beet; [7]): 5
Velvetleaf plant response rating (velvetleaf; [1]): 0
Velvetleaf plant response rating (velvetleaf; [2]): 0
Plant response rating, Velvetleaf (velvetleaf; [3]): 0
Velvetleaf plant response rating (velvetleaf; [6]): 0
Velvetleaf plant response rating (velvetleaf; [7]): 1
Wheat plant response rating (wheat; [1]): 0
Wheat plant response rating (wheat; [2]): 0
Plant response rating, Wheat (wheat; [3]): 4
Wheat plant response rating (wheat; [6]): 0
Wheat plant response rating (wheat; [7]): 0
Wild oats plant response rating (wild oat; [1]): 0
Wild oats plant response rating (wild oat; [2]): 0
Plant response rating, Wild oats (wild oat; [3]): 4
Wild oats plant response rating (wild oat; [6]): 0
Wild oats plant response rating (wild oat; [7]): 0
Nutsedge plant response rating (purple nutsedge; [2]): 0
Plant response rating, Nutsedge (purple nutsedge; [3]): 0
Nutsedge plant response rating (purple nutsedge; [6]): 0
Plant response rating (0 to 10; 0 is no effect, 10 is complete control), Nutsedge (purple nutsedge; Rate 250 g/ha, Postemergence): 0
Nutsedge plant response rating (purple nutsedge; [7]): 0
Rice plant response rating (rice; [8]): 0
Rice plant response rating (rice; [9]): 0
Rice plant response rating (rice; [10]): 0
Rice plant response rating (rice; [11]): 0
S. Flatsedge plant response rating (smallflower flatsedge; [8]): 0
S. Flatsedge plant response rating (smallflower flatsedge; [9]): 0
S. Flatsedge plant response rating (smallflower flatsedge; [10]): 0
S. Flatsedge plant response rating (smallflower flatsedge; [11]): 0
Ducksalad plant response rating (duck salad; [8]): 0
Ducksalad plant response rating (duck salad; [9]): 0
Ducksalad plant response rating (duck salad; [10]): 0
Ducksalad plant response rating (duck salad; [11]): 0
Barnyardgrass plant response rating (bamyardgrass; [8]): 0
Barnyardgrass plant response rating (bamyardgrass; [9]): 0
Barnyardgrass plant response rating (bamyardgrass; [10]): 0
Barnyardgrass plant response rating (bamyardgrass; [11]): 0
